The melting point is the temperature of the solid-liquid transition. As for `O=C(C=Cc1cccnc1)NCCCS(=O)(=O)N1CCN(C(c2ccccc2)c2ccccc2)CC1` [Substance 32, N-[3-(4-diphenylmethyl-piperazin-1-yl-sulfonyl)-propyl]-3-pyridin-3-yl-acrylamide], the melting point is 167 to 168 °C.
The value for `O=C(C=Cc1cccnc1)NCCCCN1CCN(c2cccc3c2CCCC3)CC1` [Substance 94, 3-pyridin-3-yl-N-[4-(4-{5,6,7,8-tetrahydro-naphthalin-1-yl}-piperazin-1-yl)-butyl]-acrylamide] was 108 to 109 °C; that for `O=C(C=Cc1cccnc1)NOCCCN1CCN(C(c2ccccc2)c2ccccc2)CC1` [Substance 30, N-[3-(4-diphenylmethylpiperazin-1-yl)-propoxy]-3-pyridin-3-yl-acrylamide] was 115 to 117 °C.
Take `O=C(C=Cc1cccnc1)NCCN1CCN(S(=O)(=O)c2ccc3ccccc3c2)CC1` [Substance 227, N-{2-[4-(naphthalin-2-yl-sulfonyl)-piperazin-1-yl]-ethyl}-3-pyridin-3-yl-acrylamide]: the melting point was 183 to 184 °C.
The molecule `O=C(C=Cc1cccnc1)NCCCCN1CCN(C2CCCc3ccccc32)CC1` (stereo not shown) [Substance 87, 3-pyridin-3-yl-N-{4-[4-(1,2,3,4-tetrahydronaphthalin-1-yl)-piperazin-1-yl]-butyl}-acrylamide] registered a melting point of 110 to 114 °C.
The value for `O=C(C=Cc1cccnc1)NCCCCN1CCN(c2ccccc2-c2ccccc2)CC1` [Substance 68, N-[4-(4-biphenyl-2-yl-piperazin-1-yl)-butyl)-3-pyridin-3-yl-acrylamide] was 115 °C; that for `O=C(C=Cc1cccnc1)NCCC(O)CN1CCN(C(c2ccccc2)c2ccccc2)CC1` (stereo not shown) [Substance 29, N-[4-(4-diphenylmethyl-piperazin-1-yl)-3-hydroxy-butyl]-3-pyridin-3-yl-acrylamide] was 168 to 171 °C.

(Values after patent US6903118B1, “Piperazinyl-substituted pyridylalkane, alkene and alkine carboxamides” (Klinge Pharma GmbH, priority 1997, dated 2005).)
